In PubChem BioAssay (NCI):
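Each compound was tested at five concentrations against cells in 96-well plates for 48 hours. GI50 is the concentration that inhibits growth by half. TGI: concentration producing complete growth inhibition.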

Tests used:
Assay in all cases: NCI-60 cell line screen, 48 h
CAKI-1 renal = tested on: CAKI-1 renal
BT-549 breast = tested on: BT-549 breast
SR leukemia = tested on: SR leukemia
UO-31 renal = tested on: UO-31 renal
NCI-H460 lung = tested on: NCI-H460 lung
NCI/ADR-RES ovarian = tested on: NCI/ADR-RES ovarian
MCF7 breast = tested on: MCF7 breast
U251 CNS = tested on: U251 CNS
DU-145 prostate = tested on: DU-145 prostate
HOP-62 NSCLC = tested on: HOP-62 NSCLC

SMILES	GI50 (CAKI-1 renal)	TGI (CAKI-1 renal)	GI50 (BT-549 breast)	TGI (BT-549 breast)	GI50 (SR leukemia)	TGI (SR leukemia)	GI50 (UO-31 renal)	TGI (UO-31 renal)	GI50 (NCI-H460 lung)	TGI (NCI-H460 lung)	GI50 (NCI/ADR-RES ovarian)	TGI (NCI/ADR-RES ovarian)	GI50 (MCF7 breast)	TGI (MCF7 breast)	GI50 (U251 CNS)	TGI (U251 CNS)	GI50 (DU-145 prostate)	TGI (DU-145 prostate)	GI50 (HOP-62 NSCLC)	TGI (HOP-62 NSCLC)
CC[C@]1(O)C[C@H]2CN(CCc3c([nH]c4ccccc34)C(C(=O)OC)(c3cc4c(cc3OC)N(C)[C@H]3[C@@](O)(C(=O)OC)[C@H](OC(C)=O)[C@]5(CC)[C@@H]6C[C@@H]6CN6CC[C@]43[C@@H]65)C2)C1 (stereo not given in full)	0.0345 µM	6.17 µM	0.0156 µM	0.683 µM	0.00211 µM	3.49 µM	0.076 µM	7.66 µM	0.00426 µM	> 4.61 µM	0.101 µM	0.797 µM	0.0019 µM	> 14.3 µM	0.00344 µM	0.527 µM	< 0.00143 µM	> 14.3 µM	0.00365 µM	> 9.22 µM
CN(Cc1cnc2nc(N)nc(N)c2n1)c1ccc(C(=O)N[C@@H](CCS(=O)(=O)O)C(=O)O)cc1		> 100 µM		> 100 µM		> 100 µM		> 100 µM		> 100 µM		> 100 µM		> 100 µM		> 100 µM	1.31 µM	> 100 µM		> 100 µM
COc1cc2c(cc1OCCCN1CCN(CCCOc3cc4c(cc3OC)C(=O)N3CC(F)(F)C[C@H]3C=N4)CC1)N=C[C@@H]1CC(F)(F)CN1C2=O	3.31 µM	13.5 µM	1.95 µM	5.36 µM	0.882 µM	11.4 µM	11.4 µM	25.7 µM	2.6 µM	15.6 µM	25.2 µM	72.9 µM	2.09 µM	20.2 µM	3.36 µM	14.3 µM	3.63 µM	13.3 µM	3.17 µM	6.07 µM
CC(C)=CCC1=C(O)c2ccccc2C(=O)C1=O		> 100 µM		> 100 µM		> 100 µM	> 100 µM	> 100 µM		> 100 µM	12.4 µM	> 100 µM	21.8 µM	> 100 µM		> 100 µM	23.5 µM	> 100 µM		> 100 µM
O=c1[nH]c(-c2cccc(F)c2)cc2cc(F)ccc12	0.264 µM	> 100 µM	0.737 µM	> 100 µM	0.0712 µM	> 100 µM	1.65 µM	> 100 µM	0.389 µM	> 100 µM	0.268 µM	> 100 µM	0.329 µM	> 100 µM	0.47 µM	> 100 µM	0.507 µM	> 100 µM	0.495 µM	> 100 µM
Nc1c(C(=O)Nc2ccccn2)sc2nc3c(cc12)C(=O)CCC3	0.697 µM	> 100 µM	0.332 µM	> 100 µM	2.75 µM	> 100 µM	9.45 µM	> 100 µM	0.596 µM	> 100 µM	0.929 µM	> 100 µM	0.435 µM	> 100 µM	1.34 µM	> 100 µM	1.98 µM	> 100 µM	1.75 µM	> 100 µM
